This is an account of results in paper PMC11495047 (Journal of Virology, 2024).

In one data set the test system is rNiV. The data set can be described thus: microbe, parasite or virus in culture. The format is cell-based.
The target of data set [1] is CedV vRdRp (rCedV TC-tr minigenome) (Cedar virus, UniProt J7GXK9). Format: cell-based.
In another data set the test system is rCedV. The data set is described as follows: microbe, parasite or virus in culture. Format: cell-based.
In data set [2] the target is GhV vRdRp (rGhV TC-tr minigenome) (Ghana virus, UniProt H9M6P4). Format: cell-based.
The conditions of data set [3]: in vivo; cited from earlier work.
The target of data set [4] is NiV vRdRp (rNiV TC-tr minigenome) (Nipah virus, UniProt Q997F0).

Like-named read-outs stand apart in the source and are kept apart here.

With `O=c1ccn([C@@H]2O[C@](F)(CO)[C@@H](O)[C@H]2O)c(=O)[nH]1` [EIDD-2749, 4′-Fluorouridine], the half-inhibitory concentration (IC50) (usually the point on the concentration scale where inhibition reaches its midpoint) with rNiV amounted to 2900 nM; in the data set on rNiV (Henipavirus nipahense, BHK), 2600 nM; in data set [1], 2100 nM; in the data set with rCedV (Cedar virus, BSR-T7/5, 24 h), 700 nM.
For the compound `NC(=O)c1c(F)cccc1-c1cccc2cnccc12` [GHP-88309], the IC50 in data set [2] was found to be 1700 nM; in data set [1] (read-out: IC50), 5700 nM; in the data set with rCedV (read-out: IC50), 1600 nM. In addition, the oral bioavailability entry in data set [3] is recorded as “high oral bioavailability”. Besides, the “susceptibility of rNiV TC-tr minigenome” value in data set [4] is “no susceptibility”.
